According to US6355799B1, “Substituted benzene compounds, process for their preparation, and herbicidal and defoliant compositions containing them” (ISK Americas Incorporated, priority 1997, dated 2002):

What was measured:
Format in all cases: in vivo
[1] = test system: upland rice (Oryza sp., var. Tebonnet, RICE); assay: Post-emerge test, crop safety; conditions: phytotoxicity rating 0-100 (0 no damage, 100 complete death), 14 days after application
Outline: (§1)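 Visual ratings on a 0-100 scale (0 no damage, 100 all plants dead) were taken at 14 days after treatment. Rates of 15-1000 g ai/ha in acetone, 187 l/ha, were sprayed onto soil one day after planting (pre-emerge) or onto 2-3 leaf plants with 0.25% v/v surfactant (post-emerge).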

[2] = test system: field corn (Zea mays L., var. Dekalb 535, CORN); assay: Post-emerge test, crop safety; conditions: phytotoxicity rating 0-100 (0 no damage, 100 complete death), 14 days after application
Outline: as §1

[3] = test system: sicklepod (Cassia obtusifolia, CASOB); assay: Pre-emerge test, greenhouse herbicide activity screening; conditions: pre-emerge, rated 14 days after application, 0 = no damage, 100 = complete death
Outline: as §1

[4] = test system: johnsongrass (Sorghum halepense, SORHA); assay: as above; conditions: pre-emerge, rated 14 days after application, 0 = no damage, 100 = complete death
Outline: as §1

[5] = test system: barnyardgrass (Echinochloa crus-galli, ECHCG); assay: as above; conditions: pre-emerge, rated 14 days after application, 0 = no damage, 100 = complete death
Outline: as §1

[6] = test system: lambsquarters (Chenopodium album, CHEAL); assay: as above; conditions: pre-emerge, rated 14 days after application, 0 = no damage, 100 = complete death
Outline: as §1

[7] = test system: common ragweed (Ambrosia artemisizfolia L., AMBEL); assay: as above; conditions: pre-emerge, rated 14 days after application, 0 = no damage, 100 = complete death
Outline: as §1

[8] = test system: velvetleaf (Abutilon theophrasti, ABUTH); assay: as above; conditions: pre-emerge, rated 14 days after application, 0 = no damage, 100 = complete death
Outline: as §1

[9] = test system: ivyleaf morningglory (Ipomoea hederacea, IPOHE); assay: as above; conditions: pre-emerge, rated 14 days after application, 0 = no damage, 100 = complete death
Outline: as §1

[10] = test system: green foxtail (Setaria viridis, SETVI); assay: as above; conditions: pre-emerge, rated 14 days after application, 0 = no damage, 100 = complete death
Outline: as §1

[11] = test system: large crabgrass (Digitaria sanguinalis, DIGSA); assay: as above; conditions: pre-emerge, rated 14 days after application, 0 = no damage, 100 = complete death
Outline: as §1

[12] = test system: redroot pigweed (Amaranthus retroflexus, AMARE); assay: as above; conditions: pre-emerge, rated 14 days after application, 0 = no damage, 100 = complete death
Outline: (§2)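 Compounds in acetone were track-sprayed at 187 l/ha, 15–1000 g ai/ha, onto sandy loam pots. Pre-emerge seeds were sown one day before spraying, with surface watering afterwards. Post-emerge plants were at the 2–3 leaf stage and sprayed with 0.25% v/v non-ionic surfactant. Injury was rated 0–100 at 14 days.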

[13] = test system: upland rice (Oryza sp., var. Tebonnet, RICE); assay: Pre-emerge test, crop safety; conditions: pre-emerge, rated 14 days after application, 0 = no damage, 100 = complete death
Outline: as §2

[14] = test system: field corn (Zea mays L., var. Dekalb 535, CORN); assay: Pre-emerge test, crop safety; conditions: pre-emerge, rated 14 days after application, 0 = no damage, 100 = complete death
Outline: as §2

[15] = test system: sicklepod (Cassia obtusifolia, CASOB); assay: Post-emerge test, greenhouse herbicide activity screening; conditions: phytotoxicity rating 0-100 (0 no damage, 100 complete death), 14 days after application
Outline: (§3)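 Sandy loam pots; pre-emerge: sown 1 d pre-spray, surface-watered after, then bottom-watered. Post-emerge: sown 8–21 d before, 2–3 leaf stage, + 0.25% v/v NIS, bottom-watered. Acetone, 187 l/ha track spray, 15–1000 g ai/ha. 0–100 injury score, day 14.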

[16] = test system: johnsongrass (Sorghum halepense, SORHA); assay: as above; conditions: phytotoxicity rating 0-100 (0 no damage, 100 complete death), 14 days after application
Outline: as §3

[17] = test system: barnyardgrass (Echinochloa crus-galli, ECHCG); assay: as above; conditions: phytotoxicity rating 0-100 (0 no damage, 100 complete death), 14 days after application
Outline: as §3

[18] = test system: lambsquarters (Chenopodium album, CHEAL); assay: as above; conditions: phytotoxicity rating 0-100 (0 no damage, 100 complete death), 14 days after application
Outline: as §3

[19] = test system: redroot pigweed (Amaranthus retroflexus, AMARE); assay: as above; conditions: phytotoxicity rating 0-100 (0 no damage, 100 complete death), 14 days after application
Outline: as §3

[20] = test system: common ragweed (Ambrosia artemisizfolia L., AMBEL); assay: as above; conditions: phytotoxicity rating 0-100 (0 no damage, 100 complete death), 14 days after application
Outline: as §3

[21] = test system: velvetleaf (Abutilon theophrasti, ABUTH); assay: as above; conditions: phytotoxicity rating 0-100 (0 no damage, 100 complete death), 14 days after application
Outline: as §3

[22] = test system: ivyleaf morningglory (Ipomoea hederacea, IPOHE); assay: as above; conditions: phytotoxicity rating 0-100 (0 no damage, 100 complete death), 14 days after application
Outline: as §3

[23] = test system: green foxtail (Setaria viridis, SETVI); assay: as above; conditions: phytotoxicity rating 0-100 (0 no damage, 100 complete death), 14 days after application
Outline: as §3

[24] = test system: large crabgrass (Digitaria sanguinalis, DIGSA); assay: as above; conditions: phytotoxicity rating 0-100 (0 no damage, 100 complete death), 14 days after application
Outline: as §3

CCCc1ccc(C(=O)N(C(=O)c2ccc(CCC)cc2)c2c(OC)c(Cl)cc(F)c2-n2c(=O)cc(C(F)(F)F)n(C)c2=O)cc1 [2-29]
Post-emerge Herbicidal Activity RICE (crop damage) ([1]; 63 g ai/ha): 40
Post-emerge Herbicidal Activity RICE (crop damage) ([1]; 250 g ai/ha): 60
Post-emerge Herbicidal Activity CORN (crop damage) ([2]; 63 g ai/ha): 10
Post-emerge Herbicidal Activity CORN (crop damage) ([2]; 250 g ai/ha): 25
Pre-emerge Herbicidal Activity CASOB (phytotoxicity rating, scale 0-100) ([3]; 63 g ai/ha): 60
Pre-emerge Herbicidal Activity CASOB (phytotoxicity rating, scale 0-100) ([3]; 250 g ai/ha): 100
Pre-emerge Herbicidal Activity SORHA (phytotoxicity rating, scale 0-100) ([4]; 63 g ai/ha): 0
Pre-emerge Herbicidal Activity SORHA (phytotoxicity rating, scale 0-100) ([4]; 250 g ai/ha): 80
Pre-emerge Herbicidal Activity ECHCG (phytotoxicity rating, scale 0-100) ([5]; 63 g ai/ha): 0
Pre-emerge Herbicidal Activity ECHCG (phytotoxicity rating, scale 0-100) ([5]; 250 g ai/ha): 50
Pre-emerge Herbicidal Activity CHEAL (phytotoxicity rating, scale 0-100) ([6]; 63 g ai/ha): 100
Pre-emerge Herbicidal Activity CHEAL (phytotoxicity rating, scale 0-100) ([6]; 250 g ai/ha): 100
Pre-emerge Herbicidal Activity AMBEL (phytotoxicity rating, scale 0-100) ([7]; 63 g ai/ha): 0
Pre-emerge Herbicidal Activity AMBEL (phytotoxicity rating, scale 0-100) ([7]; 250 g ai/ha): 60
Pre-emerge Herbicidal Activity ABUTH (phytotoxicity rating, scale 0-100) ([8]; 63 g ai/ha): 100
Pre-emerge Herbicidal Activity ABUTH (phytotoxicity rating, scale 0-100) ([8]; 250 g ai/ha): 100
Pre-emerge Herbicidal Activity IPOHE (phytotoxicity rating, scale 0-100) ([9]; 63 g ai/ha): 30
Pre-emerge Herbicidal Activity IPOHE (phytotoxicity rating, scale 0-100) ([9]; 250 g ai/ha): 100
Pre-emerge Herbicidal Activity SETVI (phytotoxicity rating, scale 0-100) ([10]; 63 g ai/ha): 100
Pre-emerge Herbicidal Activity SETVI (phytotoxicity rating, scale 0-100) ([10]; 250 g ai/ha): 100
Pre-emerge Herbicidal Activity DIGSA (phytotoxicity rating, scale 0-100) ([11]; 63 g ai/ha): 60
Pre-emerge Herbicidal Activity DIGSA (phytotoxicity rating, scale 0-100) ([11]; 250 g ai/ha): 90
Pre-emerge Herbicidal Activity AMARE (phytotoxicity rating, scale 0-100) ([12]; 63 g ai/ha): 100
Pre-emerge Herbicidal Activity AMARE (phytotoxicity rating, scale 0-100) ([12]; 250 g ai/ha): 100
Pre-emerge crop damage RICE (phytotoxicity rating, scale 0-100) ([13]; 63 g ai/ha): 40
Pre-emerge crop damage RICE (phytotoxicity rating, scale 0-100) ([13]; 250 g ai/ha): 65
Pre-emerge crop damage CORN (phytotoxicity rating, scale 0-100) ([14]; 63 g ai/ha): 0
Pre-emerge crop damage CORN (phytotoxicity rating, scale 0-100) ([14]; 250 g ai/ha): 15
Post-emerge Herbicidal Activity CASOB ([15]; 63 g ai/ha): 20
Post-emerge Herbicidal Activity CASOB ([15]; 250 g ai/ha): 40
Post-emerge Herbicidal Activity SORHA ([16]; 63 g ai/ha): 0
Post-emerge Herbicidal Activity SORHA ([16]; 250 g ai/ha): 10
Post-emerge Herbicidal Activity ECHCG ([17]; 63 g ai/ha): 0
Post-emerge Herbicidal Activity ECHCG ([17]; 250 g ai/ha): 20
Post-emerge Herbicidal Activity CHEAL ([18]; 63 g ai/ha): 80
Post-emerge Herbicidal Activity CHEAL ([18]; 250 g ai/ha): 90
Post-emerge Herbicidal Activity AMARE ([19]; 63 g ai/ha): 90
Post-emerge Herbicidal Activity AMARE ([19]; 250 g ai/ha): 100
Post-emerge Herbicidal Activity AMBEL ([20]; 63 g ai/ha): 50
Post-emerge Herbicidal Activity AMBEL ([20]; 250 g ai/ha): 60
Post-emerge Herbicidal Activity ABUTH ([21]; 63 g ai/ha): 100
Post-emerge Herbicidal Activity ABUTH ([21]; 250 g ai/ha): 100
Post-emerge Herbicidal Activity IPOHE ([22]; 63 g ai/ha): 75
Post-emerge Herbicidal Activity IPOHE ([22]; 250 g ai/ha): 100
Post-emerge Herbicidal Activity SETVI ([23]; 63 g ai/ha): 20
Post-emerge Herbicidal Activity SETVI ([23]; 250 g ai/ha): 50
Post-emerge Herbicidal Activity DIGSA ([24]; 63 g ai/ha): 0
Post-emerge Herbicidal Activity DIGSA ([24]; 250 g ai/ha): 20
